These results are taken from US10710994B2, “Oxadiazole transient receptor potential channel inhibitors” (Genentech, Inc., priority 2018, dated 2020).

The target in this assay is human TRPA1 channel (Homo sapiens (Human), UniProt O75762). As to the kind of experiment: hTRPA1 CHO Ca2+ FLIPR Tetra assay: block of cinnamaldehyde induced calcium influx. As to conditions: CHO cells expressing TRPA1, Hill coefficient fixed to 1.5. The assay is classed as cell-based. In outline: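 TRPA1-expressing CHO cells loaded with calcium indicator dye (1 h 37° C, then 15 min room temperature) in HBSS/20 mM HEPES pH 7.4/0.02% BSA. IC50 from fits with fixed Hill coefficient.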

Where [1] appears, read: read-out: hTRPA1 IC50 10 min, 10 minutes incubation with compound before cinnamaldehyde (about EC80).
Where [2] appears, read: read-out: hTRPA1 IC50 90 min, 90 minutes incubation with compound before cinnamaldehyde (about EC80).
[3] abbreviates: hTRPA1 IC50 10 min, 10 minutes incubation with compound before cinnamaldehyde (about EC80).
The mark [4] stands for this setting: hTRPA1 IC50 90 min, 90 minutes incubation with compound before cinnamaldehyde (about EC80).

pIC50: −log10 of the molar value. Where two headings read alike, the source gives them in different places.

human TRPA1 channel, sequence (O75762 whole entry): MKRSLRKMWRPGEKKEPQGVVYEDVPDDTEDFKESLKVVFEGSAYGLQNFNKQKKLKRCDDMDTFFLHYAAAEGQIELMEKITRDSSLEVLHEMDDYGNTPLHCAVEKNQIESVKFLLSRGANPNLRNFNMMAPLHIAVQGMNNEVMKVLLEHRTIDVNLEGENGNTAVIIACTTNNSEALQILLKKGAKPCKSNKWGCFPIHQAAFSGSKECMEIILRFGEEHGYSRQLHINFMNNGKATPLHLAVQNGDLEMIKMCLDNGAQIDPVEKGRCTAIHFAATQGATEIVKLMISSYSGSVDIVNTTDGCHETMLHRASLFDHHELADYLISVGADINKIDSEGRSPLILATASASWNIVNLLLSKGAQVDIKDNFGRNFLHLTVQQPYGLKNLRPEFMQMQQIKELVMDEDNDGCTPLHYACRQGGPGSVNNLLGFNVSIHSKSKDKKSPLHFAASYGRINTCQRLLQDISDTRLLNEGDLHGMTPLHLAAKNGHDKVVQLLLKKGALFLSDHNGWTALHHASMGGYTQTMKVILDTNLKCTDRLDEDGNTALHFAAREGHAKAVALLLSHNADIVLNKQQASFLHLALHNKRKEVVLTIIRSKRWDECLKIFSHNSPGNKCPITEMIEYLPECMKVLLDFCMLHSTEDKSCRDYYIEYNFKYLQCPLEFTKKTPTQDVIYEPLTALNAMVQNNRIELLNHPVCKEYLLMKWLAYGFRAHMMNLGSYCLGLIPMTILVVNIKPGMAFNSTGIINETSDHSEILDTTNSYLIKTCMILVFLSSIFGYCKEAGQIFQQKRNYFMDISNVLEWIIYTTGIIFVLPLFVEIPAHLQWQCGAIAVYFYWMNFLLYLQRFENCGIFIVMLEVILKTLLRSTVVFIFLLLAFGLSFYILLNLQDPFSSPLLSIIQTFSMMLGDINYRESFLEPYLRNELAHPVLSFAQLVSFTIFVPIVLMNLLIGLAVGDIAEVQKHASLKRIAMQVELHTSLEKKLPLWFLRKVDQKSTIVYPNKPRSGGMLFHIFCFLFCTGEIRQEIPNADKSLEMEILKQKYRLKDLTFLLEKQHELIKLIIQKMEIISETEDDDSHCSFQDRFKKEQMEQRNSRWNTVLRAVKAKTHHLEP

By pIC50 is commonly meant the IC50 on a negative log10 scale, so that one unit is a factor of ten. For `Cn1cnc2nc(N)n(Cc3nc([C@@H]4CO[C@@H](c5ccc(S(F)(F)(F)(F)F)cc5)C4)no3)c(=O)c21` [Example 74, 2-amino-7-methyl-1-((3-((3R,5R)-5-(4-(pentafluoro-16-sulfanyl)phenyl)tetrahydrofuran-3-yl)-1,2,4-oxadiazol-5-yl)methyl)-1,7-dihydro-6H-purin-6-one], the pIC50 was 6.77 under setting [1] and 6.92 under setting [2].

Take `Cc1ncn2ncn(Cc3nc([C@@H]4CO[C@@H](c5ccc(F)cc5)C4)no3)c(=O)c12` [Example 75, 3-((3-((3R,5R)-5-(4-fluorophenyl)tetrahydro-furan-3-yl)-1,2,4-oxadiazol-5-yl)methyl)-5-methylimidazo[5,1-f][1,2,4]triazin-4(3H)-one]: the negative-log IC50 (pIC50) under setting [2] was 7.60.

For `Cn1c(C(F)F)nc2ncn(Cc3nc([C@@H]4CO[C@@H](c5ccc(Cl)cc5)C4)no3)c(=O)c21` [Example 76, 1-((3-((3R,5R)-5-(4-chlorophenyl)tetrahydro-furan-3-yl)-1,2,4-oxadiazol-5-yl)methyl)-8-(difluoro-methyl)-7-methyl-1,7-dihydro-6H-purin-6-one], the pIC50 under setting [2] was 7.96.

`NC(=O)c1ccc2c(=O)n(Cc3nc([C@@H]4CO[C@@H](c5ccc(Cl)cc5)C4)no3)cnc2n1` [Example 77, 3-((3-((3R,5R)-5-(4-chlorophenyl)tetrahydro-furan-3-yl)-1,2,4-oxadiazol-5-yl)methyl)-4-oxo-3,4-dihydropyrido[2,3-d] pyrimidine-7-carboxamide]: the pIC50 under setting [2] was 7.18.

Regarding `Cc1nc(NC2CCN(C)CC2)n2ncn(Cc3nc([C@@H]4CO[C@@H](c5ccc(Cl)cc5)C4)no3)c(=O)c12` [Example 78, 3-((3-((3R,5R)-5-(4-chlorophenyl)tetrahydro-furan-3-yl)-1,2,4-oxadiazol-5-yl)methyl)-5-methyl-7-((1-methylpiperidin-4-yl)amino)imidazo[5,1-f] [1,2,4]triazin-4(3H)-one], the pIC50 under setting [2] was 6.82.

With `Cc1nc(NC2CNC2)n2ncn(Cc3nc([C@@H]4CO[C@@H](c5ccc(Cl)cc5)C4)no3)c(=O)c12` [Example 79], under setting [2], the negative logarithm of the IC50 (pIC50) is 7.04.

In the case of `Cc1nc(N2CC(CN)C2)n2ncn(Cc3nc([C@@H]4CO[C@@H](c5ccc(Cl)cc5)C4)no3)c(=O)c12` [Example 80, 7-(3-(aminomethyl)azetidin-1-yl)-3-((3-((3R,5R)-5-(4-chlorophenyl)tetrahydro-furan-3-yl)-1,2,4-oxadiazol-5-yl)methyl)-5-methylimidazo[5,1-f] [1,2,4]triazin-4(3H)-one], the pIC50 under setting [2] was 6.74.

For `Cc1nc(N)n2ncn(Cc3nc([C@@H]4CO[C@@H](c5ccc(F)cc5)C4)no3)c(=O)c12` [Example 81, 7-amino-3-((3-((3R,5R)-5-(4-fluorophenyl)tetrahydro-furan-3-yl)-1,2,4-oxadiazol-5-yl)methyl)-5-methyl-imidazo[5,1-f][1,2,4]triazin-4(3H)-one], the pIC50 under setting [2] was 7.12.

For the compound `O=c1c2cccc(=O)n2cnn1Cc1nc([C@@H]2CO[C@@H](c3ccc(Cl)cc3)C2)no1` [Example 82, 2-((3-((3R,5R)-5-(4-chlorophenyl)tetrahydro-furan-3-yl)-1,2,4-oxadiazol-5-yl)methyl)-2H-pyrido [1,2-d][1,2,4]triazine-1,6-dione], the pIC50 under setting [2] was 8.62.

As for `Cn1cnc2ncn(Cc3nc([C@@H]4CO[C@@H](c5cc(F)c(Cl)c(F)c5)C4)no3)c(=O)c21` [Example 83, 1-((3-((3R,5R)-5-(4-chloro-3,5-difluorophenyl)tetrahydrofuran-3-yl)-1,2,4-oxadiazol-5-yl)methyl)-7-methyl-1,7-dihydro-6H-purin-6-one], the pIC50 is 7.32 under setting [3] and 7.89 under setting [4].

On to `Cc1ncn2nc(N)n(Cc3nc([C@@H]4CO[C@@H](c5ccc(Cl)cc5)C4)no3)c(=O)c12` [Example 84, 2-amino-3-((3-((3R,5R)-5-(4-chlorophenyl)tetra-hydrofuran-3-yl)-1,2,4-oxadiazol-5-yl)methyl)-5-methylimidazo[5,1-f] [1,2,4]triazin-4(3H)-one], for which the pIC50 is 6.85 under setting [1] and 8.34 under setting [2].

Consider `Cc1ncn2nc(N)n(Cc3nc([C@@H]4CO[C@@H](c5ccc(F)cc5)C4)no3)c(=O)c12` [Example 85, 2-amino-3-((3-((3R,5R)-5-(4-fluorophenyl)tetra-hydrofuran-3-yl)-1,2,4-oxadiazol-5-yl)methyl)-5-methylimidazo[5,1-f] [1,2,4]triazin-4(3H)-one], for which the pIC50 is 7.81 under setting [1] and 8.22 under setting [2].

Turning to `Cn1cnc2ncn(Cc3nc([C@@H]4CO[C@@H](c5ccc(S(F)(F)(F)(F)F)cc5)C4)no3)c(=O)c21` [Example 86, 7-methyl-1-((3-((3R,5R)-5-(4-(pentafluoro-l6-sulfanyl)phenyl)tetrahydro-furan-3-yl)-1,2,4-oxadiazol-5-yl)methyl)-1,7-dihydro-6H-purin-6-one], the pIC50 was 5.81 under setting [1] and 6.03 under setting [2].

For the compound `Nc1ccc2c(=O)n(Cc3nc([C@@H]4CO[C@@H](c5ccc(Cl)cc5)C4)no3)ncc2n1` [Example 87, 2-amino-6-((3-((3R,5R)-5-(4-chlorophenyl)tetra-hydrofuran-3-yl)-1,2,4-oxadiazol-5-yl)methyl) pyrido[2,3-d]pyridazin-5(6H)-one], the pIC50 is 7.98 under setting [1] and 8.46 under setting [2].

For the compound `CN1CCc2c(ncn(Cc3nc([C@@H]4CO[C@@H](c5ccc(Cl)cc5)C4)no3)c2=O)C1` [Example 88, 3-((3-((3R,5R)-5-(4-chlorophenyl)tetrahydro-furan-3-yl)-1,2,4-oxadiazol-5-yl)methyl)-7-methyl-5,6,7,8-tetrahydropyrido [3,4-d]pyrimidin-4(3H)-one], the pIC50 was 5.57 under setting [1] and 6.35 under setting [2].

Regarding `Nc1nc2ncccc2c(=O)n1Cc1nc([C@@H]2CO[C@@H](c3ccc(F)cc3)C2)no1` [Example 89, 2-amino-3-((3-((3R,5R)-5-(4-fluorophenyl)tetrahydrofuran-3-yl)-1,2,4-oxadiazol-5-yl)methyl) pyrido[2,3-d]pyrimidin-4(3H)-one], the pIC50 by setting is: under setting [1], 7.73; under setting [2], 8.54.

For `O=c1c2ccnnc2ncn1Cc1nc([C@@H]2CO[C@@H](c3ccc(F)cc3)C2)no1` [Example 103, 6-[[3-[(3R,5R)-5-(4-fluorophenyl)tetrahydro-furan-3-yl]-1,2,4-oxadiazol-5-yl]methyl]pyrimido[4,5-c]pyridazin-5-one], the pIC50 by setting is: under setting [1], 7.14; under setting [2], 7.05.

In the case of `Cc1ccnc2cnn(Cc3nc([C@@H]4CO[C@@H](c5ccc(F)cc5)C4)no3)c(=O)c12` [Example 104, 6-[[3-[(3R,5R)-5-(4-fluorophenyl)tetrahydro-furan-3-yl]-1,2,4-oxadiazol-5-yl]methyl]-4-methyl-pyrido[2,3-d] pyridazin-5-one], the pIC50 reads like this: under setting [1], 8.14; under setting [2], 8.17.

As to `Cc1nc2nc(C)n(C)c2c(=O)n1Cc1nc([C@@H]2CO[C@@H](c3ccc(Cl)cc3)C2)no1` [Example 109, 1-((3-((3R,5R)-5-(4-chlorophenyl)tetrahydro-furan-3-yl)-1,2,4-oxadiazol-5-yl)methyl)-2,7,8-trimethyl-1,7-dihydro-6H-purin-6-one], the pIC50 reads like this: under setting [1], 7.07; under setting [2], 7.21.

With `[2H]c1nc2nc(C)n(Cc3nc([C@@H]4CO[C@@H](c5ccc(Cl)cc5)C4)no3)c(=O)c2n1C` [Example 110, 1-((3-((3R,5R)-5-(4-chlorophenyl)tetrahydro-furan-3-yl)-1,2,4-oxadiazol-5-yl)methyl)-2,7-dimethyl-1,7-dihydro-6H-purin-6-one-8-d], the negative-log IC50 (pIC50) is 8.03 under setting [3] and 8.41 under setting [4].

As to `Cc1nc2[nH]c(=O)n(C)c2c(=O)n1Cc1nc([C@@H]2CO[C@@H](c3ccc(Cl)cc3)C2)no1` [Example 111, 1-((3-((3R,5R)-5-(4-chlorophenyl)tetrahydro-furan-3-yl)-1,2,4-oxadiazol-5-yl)methyl)-2,7-dimethyl-7,9-dihydro-1H-purine-6,8-dione], the negative logarithm of the IC50 (pIC50) is 7.07 under setting [1] and 7.47 under setting [2].

As to `Nc1nc2nccnc2n1Cc1nc([C@@H]2CO[C@@H](c3ccc(Cl)cc3)C2)no1` [Example 112, 1-((3-((3R,5R)-5-(4-chlorophenyl)tetrahydro-furan-3-yl)-1,2,4-oxadiazol-5-yl)methyl)-1H-imidazo[4,5-b] pyrazin-2-amine], the pIC50 was 7.97 under setting [1] and 8.42 under setting [2].

For the compound `Cc1nc2nc(Cl)n(C)c2c(=O)n1Cc1nc([C@@H]2CO[C@@H](c3ccc(Cl)cc3)C2)no1` [Example 114, 8-chloro-1-((3-((3R,5R)-5-(4-chlorophenyl)tetrahydrofuran-3-yl)-1,2,4-oxadiazol-5-yl)methyl)-2,7-dimethyl-1,7-dihydro-6H-purin-6-one], the pIC50 reads like this: under setting [1], 7.42; under setting [2], 7.66.

In the case of `N#Cc1cnn2ncn(Cc3nc([C@@H]4CO[C@@H](c5ccc(Cl)cc5)C4)no3)c(=O)c12` [Example 115, 3-((3-((3R,5R)-5-(4-chlorophenyl)tetrahydro-furan-3-yl)-1,2,4-oxadiazol-5-yl)methyl)-4-oxo-3,4-dihydro-pyrazolo[5,1-f][1,2,4] triazine-5-carbonitrile], the pIC50 by setting is: under setting [1], 7.02; under setting [2], 7.40.
